Data published in patent US8106045B2, “2-morpholino-4-pyrimidone compound” (Mitsubishi Tanabe Pharma Corporation, priority 2004, dated 2012).

Biological target: T1, bovine cerebral TPK1 (Bos taurus, UniProt A0A3Q1MT31)
T1 construct: bovine cerebral TPK1; from tissue; host or cells: bovine cerebrum (brain)
Assay: Inhibitory activity against P-GS1 phosphorylation by bovine cerebral TPK1
Type: biochemical
Details: 41.7 μM [γ-32P] ATP, 25° C. for 2 hours
Protocol: Experiment 1: Inhibitory Activity of the Medicament of the Present Invention Against P-GS1 Phosphorylation by Bovine Cerebral TPK1
A mixture containing 100 mM MES-sodium hydroxide (pH 6.5), 1 mM magnesium acetate, 0.5 mM EGTA, 5 mM B-mercaptoethanol, 0.02% Tween 20, 10% glycerol, 12 μg/ml P-GS1, 41.7 μM [γ-^32P] ATP (68 kBq/ml), bovine cerebral TPK1 and a compound shown in Table (a final mixture contained 1.7% DMSO deriving from a solution of a test compound prepared in the presence of 10% DMSO) was used as a reaction system. The phosphorylation was started by adding ATP, and the reaction was conducted at 25° C. for 2 hours, and then stopped by adding 21% perchloric acid on ice cooling. The reaction mixture was centrifuged at 12,000 rpm for 5 minutes and adsorbed on P81 paper (Whatmann), and then the paper was washed four times with 75 mM phosphoric acid, three times with water and once with acetone. The paper was dried, and the residual radioactivity was measured using a liquid scintillation counter.

T1 sequence (A0A3Q1MT31 1-419): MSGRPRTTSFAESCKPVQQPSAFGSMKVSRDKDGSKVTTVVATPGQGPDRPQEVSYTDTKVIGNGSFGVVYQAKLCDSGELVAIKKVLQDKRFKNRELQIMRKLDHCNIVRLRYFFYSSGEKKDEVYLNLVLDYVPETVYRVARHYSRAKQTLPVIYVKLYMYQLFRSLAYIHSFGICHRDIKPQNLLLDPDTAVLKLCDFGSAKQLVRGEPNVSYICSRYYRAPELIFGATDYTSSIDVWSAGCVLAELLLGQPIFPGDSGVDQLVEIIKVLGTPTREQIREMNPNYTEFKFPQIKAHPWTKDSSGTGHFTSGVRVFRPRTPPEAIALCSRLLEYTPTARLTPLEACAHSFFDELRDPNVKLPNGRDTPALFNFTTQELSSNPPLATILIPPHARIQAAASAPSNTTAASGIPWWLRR

IC50	SMILES
6.1 nM	CN(c1ccc([C@H]2CN(c3nc(-c4ccncn4)cc(=O)n3C)CCO2)cc1)[C@@H]1CCOC1 [Compound No. 091, 2-((2S)-2-(4-(N-methyl-N-((3R)-tetrahydrofuran-3yl)amino)phenyl)morpholin-4-yl)-3-methyl-6-(pyrimidin-4-yl)-3H-pyrimidin-4-one]
5.4 nM	Cn1c(N2CCO[C@@H](c3ccc(C(=O)NCCO)cc3)C2)nc(-c2ccncn2)cc1=O [Compound No. 210, N-(2-hydroxy-ethyl)-4-[(2S)-4-(1-methyl-6-oxo-1,6-dihydro-[4,4′]bipyrimidinyl-2-yl)-morpholin-2-yl]-benzamide]
0.48 nM	CN(C)CC(=O)Nc1ccc([C@H]2CN(c3nc(-c4ccncn4)cc(=O)n3C)CCO2)cc1 [Compound No. 220, N^2,N^2-Dimethyl-N^1-{4-[(2S)-4-(1-methyl-6-oxo-1,6-dihydro-4,4′-bipyrimidin-2-yl)morpholin-2-yl]phenyl}glycinamide]
9.7 nM	CN(C)C(=O)Nc1ccc([C@H]2CN(c3nc(-c4ccncc4)cc(=O)n3C)CCO2)cc1 [Compound No. 237, 1,1-Dimethyl-3-{4-[4-(1-methyl-6-oxo-4-pyridin-4-yl-1,6-dihydro-pyrimidin-2-yl)-morpholin-2-yl]-phenyl}-urea]

Further lines, the compound ahead of its results:

SMILES	IC50
Cn1c(N2CCO[C@@H](c3ccc(OCCCN4CCCC4)cc3)C2)nc(-c2ccncn2)cc1=O [Compound No. 202, 2-((2S)-2-(4-(3-(pyrrolidin-1-yl)propyloxy)phenyl)morpholine-4-yl)-3-methyl-6-(pyrimidin-4-yl)-pyrimidin-4-one]	0.43 nM
COC(=O)Nc1ccc([C@H]2CN(c3nc(-c4ccncc4)cc(=O)n3C)CCO2)cc1 [Compound No. 231, Methyl (4-((2S)-4-(3-methyl-4-oxo-6-(pyridin-4-yl)-3H-pyrimidin-2-yl)morpholin-2-yl)-phenyl)carbamate]	5.8 nM
Cn1c(N2CCO[C@@H](c3ccc(N4CCC(N5CCCC5)CC4)cc3)C2)nc(-c2ccncc2)cc1=O [compound 6]	3.4 nM
Cn1c(N2CCO[C@@H](c3ccc(Nc4ccncc4)cc3)C2)nc(-c2ccncc2)cc1=O [compound 50]	4.8 nM
Cn1c(N2CCO[C@@H](c3ccc(NC(=O)c4ccccc4)cc3)C2)nc(-c2ccncc2)cc1=O [compound 70]	5.1 nM
Cn1c(N2CCO[C@@H](c3ccc(NC(=O)CN4CCN(c5ccccc5)CC4)cc3)C2)nc(-c2ccncc2)cc1=O [compound 100]	5.2 nM
